“And” between values parts separate entries of the source, which are not always exact repeats. Identical values can stand only once.
Tests used:
glucose and insulin = assay: Blood glucose, insulin and HbA1c; assay type: in vivo, human
clinical = assay type: in vivo; conditions: for half-life / AUC(0-t) / Cmax / Tmax: human, plasma, oral
[1] = 100 mg (n = 2), steady state, individual values
[2] = 100 mg, Day 15, 100 mg (n = 2), steady state, individual values

Compound: CC(C)NC[C@@H](C(=O)N1CCN(c2ncnc3c2[C@H](C)C[C@H]3O)CC1)c1ccc(Cl)cc1 [Ipatasertib]
- time for glucose and insulin levels to return to baseline (glucose and insulin; after ipatasertib dose): ≤ 6 h
- baseline glucoses after two cycles (glucose and insulin; all patients in stage 1): did not significantly elevate baseline glucoses
- nonfasting blood glucose (glucose and insulin; almost all patients dosed with ipatasertib ≥200 mg): transient nonfasting (post-meal) asymptomatic hyperglycemia
- glycated hemoglobin A1c (HbA1c), end of study vs baseline at screening (glucose and insulin; including patients at 800 mg): did not change significantly
- elevation in insulin (glucose and insulin; ipatasertib ≥600 mg): up to 500 fold
- Accumulation ratio, AUC0–24,ss (day 15)/AUC0–24 (day 1) (clinical; 25 mg (n = 3), geometric mean (%CV)): 2.78 (15.7%)
- Accumulation ratio, AUC0–24,ss (day 15)/AUC0–24 (day 1) (clinical; 50 mg (n = 3), geometric mean (%CV)): 2.43 (32.1%)
- AUC0–24,ss, Day 15 (clinical; [1]): 568 ng·h/mL and 239 ng·h/mL
- Cmax, Day 15 (clinical; [1]): 53.0 ng/mL
- Accumulation ratio, AUC0–24,ss (day 15)/AUC0–24 (day 1) (clinical; 100 mg (n = 2), individual values): 2.57 and 0.927
- clinical exposure relative to preclinical efficacy (clinical; 100 mg, most sensitive preclinical models): equivalent to TGI 60
- Accumulation ratio, AUC0–24,ss (day 15)/AUC0–24 (day 1) (clinical; 200 mg (n = 3), geometric mean (%CV)): 2.44 (28.1%)
- Accumulation ratio, AUC0–24,ss (day 15)/AUC0–24 (day 1) (clinical; 400 mg (n = 3), geometric mean (%CV)): 1.95 (36.5%)
- t1/2, Day 1 (clinical; 600 mg (n = 7), single dose, geometric mean (range)): 45.8 (36.7–55.0) h
- Accumulation ratio, AUC0–24,ss (day 15)/AUC0–24 (day 1) (clinical; 600 mg (n = 7), geometric mean (%CV)): 1.80 (73.6%)
- Accumulation ratio, AUC0–24,ss (day 15)/AUC0–24 (day 1) (clinical; 800 mg (n = 5), geometric mean (%CV)): 2.22 (20.0%)
- mean accumulation ratio (AUC0–24,ss/AUC0–24, day 1), range over doses (clinical; doses of 200 mg to 800 mg): 1.80 to 2.44
- half-life (clinical): 31.9 to 53 h
- half-life (clinical; 25 mg): 4.46 h
- AUC(0-t) (clinical; 25 mg, AUC0–24, Day 1, 25 mg (n = 3), single dose, geometric mean (%CV)): 31.8 ng·h/mL
- AUC(0-t) (clinical; 25 mg, AUC0–24,ss, Day 15, 25 mg (n = 3), steady state, geometric mean (%CV)): 88.3 ng·h/mL
- Cmax (clinical; 25 mg, Day 1, 25 mg (n = 3), single dose, geometric mean (%CV)): 8.93 ng/mL
- Cmax (clinical; 25 mg, Day 15, 25 mg (n = 3), steady state, geometric mean (%CV)): 8.92 ng/mL
- Tmax (clinical; 25 mg, Day 1, 25 mg (n = 3), single dose, median (range)): 0.5 h
- Tmax (clinical; 25 mg, Day 15, 25 mg (n = 3), steady state, median (range)): 0.5 h
- half-life (clinical; 50 mg): 10.1 h
- AUC(0-t) (clinical; 50 mg, AUC0–24, Day 1, 50 mg (n = 3), single dose, geometric mean (%CV)): 70.3 ng·h/mL
- AUC(0-t) (clinical; 50 mg, AUC0–24,ss, Day 15, 50 mg (n = 3), steady state, geometric mean (%CV)): 171 ng·h/mL
- Cmax (clinical; 50 mg, Day 1, 50 mg (n = 3), single dose, geometric mean (%CV)): 13.3 ng/mL
- Cmax (clinical; 50 mg, Day 15, 50 mg (n = 3), steady state, geometric mean (%CV)): 33.9 ng/mL
- Tmax (clinical; 50 mg, Day 1, 50 mg (n = 3), single dose, median (range)): 2.92 h
- Tmax (clinical; 50 mg, Day 15, 50 mg (n = 3), steady state, median (range)): 1 h
- half-life (clinical; 100 mg): 31.9 h
- AUC(0-t) (clinical; 100 mg, AUC0–24, Day 1, 100 mg (n = 3), single dose, geometric mean (%CV)): 260 ng·h/mL
- Cmax (clinical; 100 mg, Day 1, 100 mg (n = 3), single dose, geometric mean (%CV)): 59.8 ng/mL
- Cmax (clinical; [2]): 76.2 ng/mL
- Tmax (clinical; 100 mg, Day 1, 100 mg (n = 3), single dose, median (range)): 2.97 h
- Tmax (clinical; [2]): 0.5 to 0.67 h
- half-life (clinical; 200 mg): 39.1 h
- AUC(0-t) (clinical; 200 mg, AUC0–24, Day 1, 200 mg (n = 3), single dose, geometric mean (%CV)): 726 ng·h/mL
- AUC(0-t) (clinical; 200 mg, AUC0–24,ss, Day 15, 200 mg (n = 3), steady state, geometric mean (%CV)): 1770 ng·h/mL
- Cmax (clinical; 200 mg, Day 1, 200 mg (n = 3), single dose, geometric mean (%CV)): 130 ng/mL
- Cmax (clinical; 200 mg, Day 15, 200 mg (n = 3), steady state, geometric mean (%CV)): 183 ng/mL
- Tmax (clinical; 200 mg, Day 1, 200 mg (n = 3), single dose, median (range)): 3 h
- Tmax (clinical; 200 mg, Day 15, 200 mg (n = 3), steady state, median (range)): 1 h
- half-life (clinical; 400 mg): 53 h
- AUC(0-t) (clinical; 400 mg, AUC0–24, Day 1, 400 mg (n = 3), single dose, geometric mean (%CV)): 1650 ng·h/mL
- AUC(0-t) (clinical; 400 mg, AUC0–24,ss, Day 15, 400 mg (n = 3), steady state, geometric mean (%CV)): 3210 ng·h/mL
- Cmax (clinical; 400 mg, Day 1, 400 mg (n = 3), single dose, geometric mean (%CV)): 506 ng/mL
- Cmax (clinical; 400 mg, Day 15, 400 mg (n = 3), steady state, geometric mean (%CV)): 838 ng/mL
- Tmax (clinical; 400 mg, Day 1, 400 mg (n = 3), single dose, median (range)): 1 h
- Tmax (clinical; 400 mg, Day 15, 400 mg (n = 3), steady state, median (range)): 1 h
- half-life (clinical; 600 mg): 45.8 h
- AUC(0-t) (clinical; 600 mg, AUC0–24, Day 1, 600 mg (n = 7), single dose, geometric mean (%CV)): 2670 ng·h/mL
- AUC(0-t) (clinical; 600 mg, AUC0–24,ss, Day 15, 600 mg (n = 7), steady state, geometric mean (%CV)): 4450 ng·h/mL
- Cmax (clinical; 600 mg, Day 1, 600 mg (n = 7), single dose, geometric mean (%CV)): 488 ng/mL
- Cmax (clinical; 600 mg, Day 15, 600 mg (n = 7), steady state, geometric mean (%CV)): 748 ng/mL
- Tmax (clinical; 600 mg, Day 1, 600 mg (n = 7), single dose, median (range)): 0.58 h
- Tmax (clinical; 600 mg, Day 15, 600 mg (n = 7), steady state, median (range)): 0.83 h
- half-life (clinical; 800 mg): 43.8 h
- AUC(0-t) (clinical; 800 mg, AUC0–24, Day 1, 800 mg (n = 7), single dose, geometric mean (%CV)): 3220 ng·h/mL
- AUC(0-t) (clinical; 800 mg, AUC0–24,ss, Day 15, 800 mg (n = 5), steady state, geometric mean (%CV)): 6670 ng·h/mL
- Cmax (clinical; 800 mg, Day 1, 800 mg (n = 7), single dose, geometric mean (%CV)): 479 ng/mL
- Cmax (clinical; 800 mg, Day 15, 800 mg (n = 5), steady state, geometric mean (%CV)): 879 ng/mL
- Tmax (clinical; 800 mg, Day 1, 800 mg (n = 7), single dose, median (range)): 2 h

— PMC5463454 (Cancer discovery, 2016)
